Legend:
[1] = system: LN229 cells; experiment: Apoptosis via Annexin V staining in LN229; assay type: cell-based; conditions: LN229 cotreated with PP242 (50 nM) and analog (100 nM), 24 h
[2] = system: human c-myc IRES; experiment: Dicistronic IRES mRNA reporter assay (firefly luciferase), c-myc IRES; assay type: cell-based; conditions: 293T cells, 50 nM, 24 h
[3] = molecular target: T1, UP1 fragment of hnRNP A1 / cyclin D1 or c-MYC IRES RNAs (Homo sapiens, UniProt P09651); experiment: Filter binding assay of GST-tagged hnRNP A1 mutants with IRES RNAs; conditions: for association of UP1 fragment (a.a. 1-196) with cyclin D1 or c-MYC IRESs: GST-tagged protein
T1 construct: The UP1 fragment (a.a. 1-196) containing RRM1 and RRM2; made in house; host or cells: HEK293 cells
T1 sequence (P09651 1-196): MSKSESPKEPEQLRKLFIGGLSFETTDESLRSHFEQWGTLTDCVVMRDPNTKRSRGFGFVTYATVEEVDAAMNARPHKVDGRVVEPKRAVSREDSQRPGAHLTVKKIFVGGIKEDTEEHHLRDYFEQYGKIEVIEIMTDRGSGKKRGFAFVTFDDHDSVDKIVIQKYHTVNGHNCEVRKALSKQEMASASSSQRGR
Method: Filter binding assays were performed as previously described (18,23). GSTtagged hnRNP A1 or hnRNP A1 deletion mutants were added to in vitro transcribed 32Plabeled RNAs corresponding to either the cyclin D1 or c-MYC IRESs in separate reactions in a volume of 10 μl in buffer containing 5 mM HEPES (pH 7.6), 30 mM KCl, 2 mM MgCl2, 200 mM DTT, 4% glycerol and 10 ng yeast tRNA for 10 min at room temperature. 8 μl of each binding reaction was applied to nitrocellulose membranes on a slot blot apparatus (Minifold II, Schleicher & Schuell). Membranes were washed and dried, and signals quantified using a phosphorimager.
To begin to investigate the mechanism of action of C11 and IRES-J007, it was initially determined whether the UP1 fragment of hnRNP A1 was sufficient to recapitulate C11 or IRESJ007-mediated inhibition of IRES binding to this ITAF. The relative association between the mutant proteins and either the cyclin D1 or c-MYC IRESs was determined by filter binding assays in the absence or presence of the inhibitors (FIG. 4B). […] Additionally, a mutant encompassing residues 103-372, containing RRM2 bound both IRES sequences and binding was reduced in the presence of either of the inhibitors. […] The presence of RRM2 is necessary and appears to cooperate with RRM1 to mediate IRES binding that is sensitive to C11 or IRES-J007. Finally, UP1 is capable of IRES binding that is blocked by either C11 or the analog IRES-J007.
Mutant 1-196 constitutes the Up1 fragment of full-length human hnRNP A1. In the Δ130-158 mutant, the sequences encompassing RRM2 have been removed. (B) Binding of either cyclin D1 (top panel) or c-MYC (bottom panel) IRES RNAs to GST-tagged hnRNP A1 mutants in the absence or presence of C11 or IRES-J007 as assayed by filter binding. The mean and +SD are shown for three independent experiments.

[4] = system: human c-myc IRES; experiment: Dicistronic IRES mRNA reporter assay (firefly luciferase), c-myc IRES; assay type: cell-based; conditions: for c-myc (decrease): fold decrease in PP242-induced c-MYC IRES activity: LN229, relative to values obtained with parent compound C11
Method: Western blot and quantitative RT-PCR analyses were performed as previously described (19). For Western blotting, cells or tissues were lysed in RIPA (lysis) buffer containing protease inhibitor cocktail and phosSTOP phosphatase inhibitor cocktail (Roche) and extracts resolved by SDSPAGE. Proteins were transferred to PVDF membranes and incubated with the indicated antibodies. For IRES reporter assays, the indicated mRNA reporters were cotransfected into cells with pSVβ-galactosidase to normalize for transfection efficiency as described previously (16). Cells were harvested 18 h following transfection and Renilla, firefly and β-galactosidase activities determined using the Dual-Glo Luciferase and β-galactosidase assay systems (Promega).
(B) Schematic diagrams of the dicistronic constructs used in this study. Constructs used are pRF, pRCD1F, which contains the human cyclin D1 IRES, pRmycF, containing the human c-myc IRES, pRp27F, containing the human p27Kip1 IRES and pRECMVF, containing the IRES from encephalomyocarditis virus. (C) Relative Renilla and firefly luciferase activities obtained from LN229 GBM cells transfected with the indicated constructs in the absence or presence of the inhibitor C11. The mean and +SD are shown for three independent experiments. […] (D) RNA-pull down assays utilizing biotinylated cyclin D1 or c-MYC IRES RNAs. Cytoplasmic extracts of LN229 cells treated with C11 (50 nM) as indicated were incubated with biotinylated cyclin D1 or c-MYC IRES RNAs and precipitated with streptavidin-Sepharose beads. Input and bound fractions were analyzed by immunoblotting using hnRNP A1 antibodies. […] RT-PCR measurements were performed in quadruplicate and the mean and +S.D. are shown. […] (F) Top panel, LN229 cells were treated with C11 as indicated and RT-PCR splicing analysis for Max exon 5 performed as described in the Experimental Methods section. Middle panel, LN229 cells treated with C11 (50 nM) as indicated, were lysed and immunoprecipitated using either eIF-4E or control IgG antibodies. Bound CCND1 or c-MYC RNAs were detected via RT-PCR. The mean and +S.D. are shown for three independent experiments. Bottom panel, cyclin D1 and c-MYC protein levels from the indicated GBM cell lines in the absence or presence of C11 at 24 h following treatment. C11 specifically blocks c-Myc IRES-mediated translation initiation by disrupting the ITAF hnRNP A1-IRES interaction.
Several dicistronic IRES mRNA reporter constructs were utilized, shown in FIG. 1B, in which the indicated IRES sequences were inserted within the intercistronic region. LN229 cells transiently transfected with these constructs were assayed for Renilla and firefly luciferase activities, which are readouts of cap-dependent and IRES-mediated translation initiation, respectively (16). […]

| SMILES | % Apoptosis (100 nM) [1] | basal c-MYC IRES activity [2] | ability to block UP1/IRES RNA interactions compared to C11 [3] | association of UP1 fragment (a.a. 1-196) with cyclin D1 or c-MYC IRESs [3] | c-myc (decrease): fold decrease in PP242-induced c-MYC IRES activity [4] | mTOR inhibitor-induced c-MYC IRES activity ([4]; LN229 cells, cotreatment with rapamycin or PP242) | c-MYC IRES activity ([4]; LN229 cells, inhibitor alone) |
| --- | --- | --- | --- | --- | --- | --- | --- |
| COc1ccc(CN2C(=O)c3ccccc3C2=O)c(OC)c1 [IRES-J007, 2-((2,4-Dimethoxyphenyl)methyl)isoindoline-1,3-dione] | 62.4% | reduced IRES activity | modest, yet significant increase | blocked association | 6.51 ± 0.07 fold |  |  |
| COc1ccc(CN2C(=O)C(Cl)=C(Cl)C2=O)c(OC)c1 [Compound C11, reference compound] | 25.9% | reduced IRES activity |  | blocked association | 1.0 fold | significantly inhibited | significantly inhibited |

Source: patent US20210220331A1, “INHIBITORS OF IRES-MEDIATED PROTEIN SYNTHESIS” (The Regents of the University of California, priority 2016, published 2021)
